Experimental findings from patent publication US6756375B2, “10-Aryl-11h-benzo[b]fluorene derivatives and analogs for medicinal use” (Akzo Nobel N.V., priority 2000, dated 2004) are described below.

For this assay, the target named is human estrogen receptor β (hERβ) (Homo sapiens, UniProt Q92731). The experiment in a line: Antiestrogenic activity in the in vitro bioassay: recombinant CHO cells co-transfected with hERβ, rat oxytocin promoter and luciferase reporter gene. It counts as cell-based. To be noted: potency ratio relative to standard ICI 164.384; inhibition of estradiol-induced luciferase transactivation via hERβ in CHO cells. As for the experimental part:
The estrogenic and antiestrogenic activity of compounds is determined in an in vitro bioassay with recombinant Chinese hamster ovary (CHO) cells stably co-transfected with the human estrogen receptor α (hERα) or β receptor (hERβ), the rat oxytocin promoter (RO) and the luciferase reporter gene (LUC). The estrogenic activity (potency ratio) of a test compound to stimulate the transactivation of the enzyme luciferase mediated via the estrogen receptors hERα or hERβ is compared with the standard estrogen estradiol. The antiestrogenic activity (potency ratio) of a test compound to inhibit the transactivation of the enzyme luciferase mediated via the estrogen receptors hERα or hERβ by the estrogen estradiol is compared with the standard ICI 164.384 (=(7α,17β)-N-butyl-3,17-dihydroxy-N-methylestra-1,3,5(10)-triene-7-undecanamide).
(A reporter such as luciferase makes a cellular process visible.)

Chain of human estrogen receptor β (hERβ) (Q92731 whole entry): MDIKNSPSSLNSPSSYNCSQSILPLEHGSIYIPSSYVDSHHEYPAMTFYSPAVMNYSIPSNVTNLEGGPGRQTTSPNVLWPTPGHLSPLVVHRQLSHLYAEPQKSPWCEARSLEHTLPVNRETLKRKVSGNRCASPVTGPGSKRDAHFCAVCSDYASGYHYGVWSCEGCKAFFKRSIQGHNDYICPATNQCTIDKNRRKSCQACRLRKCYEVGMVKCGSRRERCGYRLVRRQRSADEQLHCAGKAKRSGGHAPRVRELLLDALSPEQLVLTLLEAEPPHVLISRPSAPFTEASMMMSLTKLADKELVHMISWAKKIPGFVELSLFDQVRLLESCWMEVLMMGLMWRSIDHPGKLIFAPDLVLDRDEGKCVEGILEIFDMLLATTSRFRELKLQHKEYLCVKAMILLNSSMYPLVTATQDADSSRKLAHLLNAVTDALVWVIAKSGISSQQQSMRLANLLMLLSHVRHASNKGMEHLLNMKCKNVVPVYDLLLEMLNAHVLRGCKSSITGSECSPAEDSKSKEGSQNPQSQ

As to `Oc1ccc2c(c1)Cc1c-2cc2ccc(O)cc2c1-c1ccc(-c2ccccc2)c(F)c1` [Compound 5s], the ERβ antagonism result is reported as “+ (5 > 5% (relative to ICI): +)”. Consider `Oc1ccc2c(c1)Cc1c-2cc2ccc(O)cc2c1-c1ccc(-c2ccccc2)cc1` [Compound 5h], for which the ERβ antagonism entry is reported as “+ (5 > 5% (relative to ICI): +)”. For the compound `Oc1ccc2c(c1)Cc1c-2cc2ccc(O)cc2c1-c1ccccc1` [Compound 5v], the ERβ antagonism result was “+ (5 > 5% (relative to ICI): +)”. As for `Cc1cccc(-c2c3c(cc4ccc(O)cc24)-c2ccc(O)cc2C3)c1` [Compound 5p], the ERβ antagonism entry is “+ (5 > 5% (relative to ICI): +)”. `Oc1ccc2c(c1)Cc1c-2cc2ccc(O)cc2c1-c1ccc(Cl)c(Cl)c1` [Compound 5m]: the ERβ antagonism result is recorded as “++ (> 40%: ++)”. To `Oc1ccc2c(c1)Cc1c-2cc2ccc(O)cc2c1-c1ccc(Cl)cc1` [Compound 5a] belongs “+ (5 > 5% (relative to ICI): +)”. To `Oc1ccc2c(c1)Cc1c-2cc2ccc(O)cc2c1-c1ccc(OC(F)(F)F)cc1` [Compound 5r] belongs “++ (> 40%: ++)”. `Oc1ccc2c(c1)Cc1c-2cc2ccc(O)cc2c1-c1ccccc1C(F)(F)F` [Compound 5u]: the ERβ antagonism result was “++ (> 40%: ++)”.

Consider `Oc1ccc2c(c1)Cc1c-2cc2ccc(O)cc2c1-c1cccc(F)c1` [Compound 5j], for which the ERβ antagonism result is on record as “+ (5 > 5% (relative to ICI): +)”. To `Oc1ccc2c(c1)Cc1c-2cc2ccc(O)cc2c1-c1ccc(F)c(Cl)c1` [Compound 5f] belongs “+ (5 > 5% (relative to ICI): +)”. To `Oc1ccc2c(c1)Cc1c-2cc2ccc(O)cc2c1-c1ccc2c(c1)OCO2` [Compound 5g] belongs “+ (5 > 5% (relative to ICI): +)”. The value for `Oc1ccc2c(c1)Cc1c-2cc2ccc(O)cc2c1-c1cccc(Cl)c1` [Compound 5n] was “+ (5 > 5% (relative to ICI): +)”. On to `Oc1ccc2c(c1)Cc1c-2cc2ccc(O)cc2c1-c1ccc(F)cc1` [Compound 5l], for which the ERβ antagonism entry is recorded as “++ (> 40%: ++)”. Consider `COc1ccc(-c2c3c(cc4ccc(O)cc24)-c2ccc(O)cc2C3)cc1` [Compound 5k], for which the ERβ antagonism result is reported as “+ (5 > 5% (relative to ICI): +)”. `Cc1ccc(-c2c3c(cc4ccc(O)cc24)-c2ccc(O)cc2C3)cc1` [Compound 5e]: the ERβ antagonism result is “++ (> 40%: ++)”. On to `Oc1ccc2c(c1)Cc1c-2cc2ccc(O)cc2c1-c1ccc2ccccc2c1` [Compound 5b], for which the ERβ antagonism result is “+ (5 > 5% (relative to ICI): +)”. The value for `Oc1ccc2c(c1)Cc1c-2cc2ccc(O)cc2c1-c1ccc(OCCN2CCCCC2)cc1` [Compound 9] was “++ (> 40%: ++)”; that for `COc1cccc(-c2c3c(cc4ccc(O)cc24)-c2ccc(O)cc2C3)c1` [Compound 5c] was “+ (5 > 5% (relative to ICI): +)”; that for `Oc1ccc2c(c1)Cc1c-2cc2ccc(O)cc2c1-c1cccc(C(F)(F)F)c1` [Compound 5d] was “+ (5 > 5% (relative to ICI): +)”. For `Oc1ccc2c(c1)Cc1c-2cc2ccc(O)cc2c1-c1ccc(C(F)(F)F)cc1` [Compound 5o], the ERβ antagonism result is listed as “+ (5 > 5% (relative to ICI): +)”. Take `CC(C)c1cccc(-c2c3c(cc4ccc(O)cc24)-c2ccc(O)cc2C3)c1` [Compound 5q]: the ERβ antagonism result was “+ (5 > 5% (relative to ICI): +)”.
